Assays:
[1] = target: T1, Peroxisome proliferator-activated receptor gamma (Homo sapiens, UniProt P37231)
T1 sequence (P37231 whole entry): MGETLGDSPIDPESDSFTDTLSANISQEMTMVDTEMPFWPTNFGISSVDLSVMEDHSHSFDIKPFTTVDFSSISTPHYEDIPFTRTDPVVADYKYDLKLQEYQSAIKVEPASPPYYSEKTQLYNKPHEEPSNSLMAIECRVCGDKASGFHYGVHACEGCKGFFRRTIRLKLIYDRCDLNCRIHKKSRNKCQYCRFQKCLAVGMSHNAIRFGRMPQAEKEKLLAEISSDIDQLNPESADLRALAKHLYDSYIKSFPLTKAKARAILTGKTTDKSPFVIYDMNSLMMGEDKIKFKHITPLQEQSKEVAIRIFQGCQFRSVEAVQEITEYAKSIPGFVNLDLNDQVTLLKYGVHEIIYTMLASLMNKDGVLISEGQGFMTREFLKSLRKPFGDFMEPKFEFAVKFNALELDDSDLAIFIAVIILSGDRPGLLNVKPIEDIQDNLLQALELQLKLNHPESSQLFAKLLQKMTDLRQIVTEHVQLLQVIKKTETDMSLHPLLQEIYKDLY
Description: Binding affinity was determined by displacement of 20 nM [3H]- thiazolidinedione from 4 nM biotinylated human peroxisome proliferator-activated receptor (PPAR gamma) ligand binding domain

[2] = Tested for transactivation of human PPAR gamma-Gal4 chimera in CV-1 cells; assay type: functional, cell-based
[3] = target: T1, Peroxisome proliferator-activated receptor gamma; test: Binding affinity was determined by displacement of 20 nM [3H]- thiazolidinedione from 4 nM biotinylated human Peroxisome proliferator activated receptor gamma (PPAR gamma) ligand binding domain

Row | Structure (SMILES) | Ki [1] | EC50 [2] | Ki [3]
1 | CCCCCCCCC(=O)N(C)CCOc1ccc(CC2SC(=O)NC2=O)cc1 (stereo not drawn) | 18 nM | 280 nM | –
2 | CN(CCOc1ccc(CC2SC(=O)NC2=O)cc1)c1ccccn1 (stereo not drawn) [ROSIGLITAZONE] | – | 50 nM | –
3 | CC/C=C/C(=O)NCCOc1ccc(CC2SC(=O)NC2=O)cc1 (stereo not drawn) | > 10000 nM | – | –
4 | CCCCC/C=C/C/C=C\C/C=C\C/C=C\CCCC(=O)O | 1500 nM | 30000 nM | –
5 | CCCCC(=O)NCCOc1ccc(CC2SC(=O)NC2=O)cc1 (stereo not drawn) | > 10000 nM | – | –
6 | CC/C=C/C(=O)N(C)CCOc1ccc(CC2SC(=O)NC2=O)cc1 (stereo not drawn) | 1200 nM | – | –
7 | C=CCC/C=C/C(=O)N(C)CCOc1ccc(CC2SC(=O)NC2=O)cc1 (stereo not drawn) | 18 nM | 520 nM | –
8 | C/C=C/CC(=O)N(C)CCOc1ccc(CC2SC(=O)NC2=O)cc1 (stereo not drawn) | 1200 nM | – | –
9 | CCCCCCC(=O)N(C)CCOc1ccc(CC2SC(=O)NC2=O)cc1 (stereo not drawn) | 61 nM | 810 nM | –
10 | CCCCCC(=O)N(C)CCOc1ccc(CC2SC(=O)NC2=O)cc1 (stereo not drawn) | 180 nM | – | –
11 | C/C=C/CC(=O)NCCOc1ccc(CC2SC(=O)NC2=O)cc1 (stereo not drawn) | > 10000 nM | – | –
12 | CCCCCCCC(=O)NCCOc1ccc(CC2SC(=O)NC2=O)cc1 (stereo not drawn) | 290 nM | – | –
13 | CCCCC(=O)N(C)CCOc1ccc(CC2SC(=O)NC2=O)cc1 (stereo not drawn) | 1100 nM | – | –
14 | CCCCCC(=O)NCCOc1ccc(CC2SC(=O)NC2=O)cc1 (stereo not drawn) | – | – | 10000 nM
15 | CCCCCCC(=O)NCCOc1ccc(CC2SC(=O)NC2=O)cc1 (stereo not drawn) | 1400 nM | – | –
16 | C=CCC/C=C/C(=O)NCCOc1ccc(CC2SC(=O)NC2=O)cc1 (stereo not drawn) | 6800 nM | – | –
17 | CCCCCCCC(=O)N(C)CCOc1ccc(CC2SC(=O)NC2=O)cc1 (stereo not drawn) | 48 nM | 280 nM | –
18 | C=CCCC(=O)NCCOc1ccc(CC2SC(=O)NC2=O)cc1 (stereo not drawn) | > 10000 nM | – | –
19 | C=CCCC(=O)N(C)CCOc1ccc(CC2SC(=O)NC2=O)cc1 (stereo not drawn) | 600 nM | – | –
20 | CCCCCCCCCC(=O)N(C)CCOc1ccc(CC2SC(=O)NC2=O)cc1 (stereo not drawn) | 20 nM | 290 nM | –
21 | CCCCCCCCCC(=O)NCCOc1ccc(CC2SC(=O)NC2=O)cc1 (stereo not drawn) | 130 nM | – | –
22 | CCCCCCCCC(=O)NCCOc1ccc(CC2SC(=O)NC2=O)cc1 (stereo not drawn) | 270 nM | – | –
